Reference: US20240245602A1, “DRUG COMBINATION KITS AND METHODS OF DRUG DELIVERY” (President and Fellows of Harvard College, priority 2020, published 2024)

Assay: In vivo ciprofloxacin mass in aspirated middle ear fluid by HPLC/MS after delivery through implanted tympanostomy tubes
Settings: after 5 minutes of therapeutic delivery (Ciprodex)
Description: N/A indicates an amount of drug below the detection limit of 100 ng/ml. Chinchillas underwent a sequential series of middle ear saline washes, and middle ear fluid was aspirated for the subsequent analysis by LC-MS.
Chinchillas were randomly allocated into two groups (LI-TT, denoted as Test TT, and SM-TT, denoted as SoC TT).

mass of ciprofloxacin within the middle ear, test tubes compared to SoC TTs: up to 5 times
SMILES: O=C(O)c1cn(C2CC2)c2cc(N3CCNCC3)c(F)cc2c1=O [ciprofloxacin]
